Data published in PubChem BioAssay AID179 (DTP/NCI, 2004).
Values joined by “and” are separate entries in the source; they are usually repeats but may differ in a detail not shown here. Identical values can stand only once. Active and inactive are the calls of the source.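 The calls were made as follows: active = compounds giving half or more protection of infected cells from virus-caused growth loss, again on retest; inactive = the rest.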 Where a SMILES comes first, the peptide text is derived from it. [ ]: non-standard residue; d: D form. The star is where a group is joined. ξ: configuration not given here. Bz = O=C(c1ccccc1)*; ξC = NC(CS)C(=O)O

Tested on: CEM cells HIV-1 protection, formazan growth assay
Assay: NCI AIDS Antiviral Assay
Conditions: for IC50: measured here: growth of uninfected CEM cells
Method in brief: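 Steps: treat uninfected and HIV-1-infected human CEM cells at five drug levels; quantify growth by soluble formazan; retest any compound reaching 50% protection; classify actives from the retest.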

| Structure (SMILES) | EC50 [µM] | IC50 | outcome |
| --- | --- | --- | --- |
| CCOC(=O)/C(=C/c1ccncc1)C(=O)c1ccccc1 | > 129 | > 129 µM | – |
| Cc1ccc(OCC2OC(n3cnc4nc(Nc5ccc(Cl)c(Cl)c5)nc(Cl)c43)CC2Oc2ccc(C)cc2)cc1 (stereo not drawn) | > 100 | > 100 µM | – |
| CC(C)c1ccc(C=Nc2ccc(SSc3ccc(N=Cc4ccc(C(C)C)cc4)cc3)cc2)cc1 | > 200 | 29.5 µM | – |
| C[N+]1(C)C/C(=C\c2ccc(O)cc2)C(=O)/C(=C/c2ccc(O)cc2)C1 | > 77.6 | 56.2 µM | – |
| c1ccc(CSC(SCc2ccccc2)(c2ccccc2)c2ccccc2)cc1 | > 200 | 102 µM and > 100 µM | – |
| Cc1ccc(N(C=O)c2c([N+](=O)[O-])cc([N+](=O)[O-])c3c2=[N+]([O-])CN=3)cc1 | > 7.59 | > 7.59 µM | – |
| O=S1(=O)C2CCCC1C(Cl)CC2 (stereo not drawn) | > 47.9 | > 47.9 µM | – |
| O=[N+]([O-])c1ccc(C2=NOC(c3ccccc3F)N2C23CC4CC(CC(C4)C2)C3)cc1 (stereo not drawn) | 195 | > 200 µM | – |
| CCOC(=O)C(=CN1CCNC1=S)C(=O)OCC | > 200 | > 200 µM | – |
| COc1ccccc1-n1c(=S)n(-c2ccccc2C)c2nc3ccccc3nc1/c2=N\Nc1ccccn1 | > 200 | > 200 µM | – |
| N#Cc1cc([N+](=O)[O-])ccc1NC(=O)/C(=N\NC(=O)c1ccncc1)C(c1cnc2ccc([N+](=O)[O-])cc2n1)[N+](=O)[O-] (stereo not drawn) | > 45.7 | 8.71 µM | – |
| O=C(c1ccccc1)c1ccc(COc2ccc(C(c3c(O)c4ccccc4oc3=O)c3c(O)c4ccccc4oc3=O)cc2)cc1 | > 200 | 35.5 µM | – |
| Cc1ccc2c(N(CCO)CCO)cc(-c3ccccc3)nc2n1 | > 200 | > 200 µM | – |
| C=C1CC[C@@](C)(c2ccc(C)cc2)C1C (stereo partly drawn) | – | – | inactive |
| Clc1ccc2nc3c(c(-c4ccccc4)nn3-c3ccccc3)c(-c3ccccc3)c2c1 | > 100 | > 100 µM | – |
| c1cncc(C2c3[nH]c4ccccc4c3CCN2CCN2CCCCC2)c1 (stereo not drawn) | > 3.98 | > 3.98 µM | – |
| CCN(CC)C(=O)N[C@@H](Cc1ccccc1)C(=O)NC | > 200 | > 200 µM | – |
| N#CCCN(CCC#N)c1ccc(/C=C2\N=C(c3ccccc3)N(c3ccccc3)C2=O)cc1 | > 200 | 7.76 µM | – |
| O=C1C(Cl)=C(c2ccc([N+](=O)[O-])cc2)C(=O)c2c(O)cccc21 | > 79.4 | 1.12 µM | – |
| N#CC(/C=C/c1ccccc1)Nc1ccccc1CO (stereo not drawn) | > 27.5 | > 27.5 µM | – |
| CCOP(=O)(OCC)C1(O)CC(n2cc(C)c(=O)[nH]c2=O)OC1CO (stereo not drawn) | > 200 | > 200 µM | – |

| Structure (SMILES) | EC50 [µM] | IC50 | outcome |
| --- | --- | --- | --- |
| CCCCOC1CC2(c3ccc(OC)cc3)C(=O)c3ccccc3N2O1 (stereo not drawn) | > 112 | 24 µM | – |
| Fc1nc(Sc2ncnc3nc[nH]c23)nc(-c2c3ccccc3c3sc4ccccc4n23)n1 | > 200 | 97.7 µM | – |
| c1ccc(C[N+]23CCC(CC2)C3c2ccccc2)cc1 (stereo not drawn) | > 832 | 148 µM | – |
| CC(C)=C1C(=O)C[C@@]2(C)C[C@H]3OC3(C)CC/C=C(/C)CCC12 (stereo partly drawn) | – | – | inactive |
| Cc1cc(N(CCC#N)CCC#N)ccc1/C=C1N=C(/C=C/c2ccccc2)N(c2ccc(S(N)(=O)=O)cc2)C\1=O | – | – | inactive |
| COC1C(O)CC(OC2CC(OC3CC(O[C@@H]4C(=O)c5c(cc6cc(OC7CC(OC8CC(O)C(O)C(C)O8)C(O)C(C)O7)c(C)c(O)c6c5O)C[C@H]4[C@H](OC)C(=O)[C@@H](O)[C@@H](C)O)OC(C)C3O)OC(C)C2O)OC1C (stereo partly drawn) | > 0.166 | 0.011 µM | – |
| CCNc1c(C(=O)N(CC)CC)c(=O)[nH]c2ncccc12 | > 871 | > 871 µM | – |
| O=C1[C@@H]2[C@@H](CN3CN(c4ccccc4)N=C(c4ccccc4)[C@@]23c2ccccc2)C(=O)N1c1ccccc1 | > 20 | 2.95 µM | – |
| COC1OC2=CCC3C(=O)N(c4ccccc4)C(=O)C3C2[C@H](OCc2ccccc2)C1OCc1ccccc1 (stereo partly drawn) | – | – | inactive |
| O=C1OCN(c2ccccc2)C12CCN(Cc1ccccc1)CC2 | > 200 | 28.8 µM | – |
| NC(CCP(=O)(O)CCC1C=CC=CC1)C(=O)O (stereo not drawn) | > 200 | > 200 µM | – |
| CC(=O)c1sc2n(C)c(=O)c3ccccc3[n+]2c1C | > 200 | > 200 µM | – |
| C/C(=N/Nc1ccc([N+](=O)[O-])cc1[N+](=O)[O-])c1ccccc1 | > 3.47 | > 3.47 µM | – |
| CC1=C(C(=O)CC(=O)C(=O)Nc2ccccc2)Sc2ccccc2N1 | > 178 | > 178 µM | – |
| COc1cc2c(c3c1[C@@H](O)[C@@H](C)[C@@H](C)O3)C=CC(C)(C)O2 | > 200 | 75.9 µM | – |
| O=C1C2CCCC3CCCC(C(=O)N1O)C32 (stereo not drawn) | > 200 | 39.8 µM | – |
| O=C1CN2Cc3c(sc4c3CCCC4)N=C2N1 | > 200 | 138 µM | – |
| Cn1c(=O)n2n(c1=O)C1C(=CC2)C2C=CC1n1c(=O)n(C)c(=O)n12 (stereo not drawn) | > 200 | > 200 µM | – |
| COC(=O)C(CS)NC(=O)CNC(=O)c1ccccc1 (stereo not drawn) (Bz-Gly-[ξC]-OMe) | > 851 | 46.8 µM | – |
| CC(C)c1c2[nH]c3ccccc3c2c(C(C)C)c2[nH]c3ccccc3c12 | > 20 | > 20 µM | – |
| COC(=O)c1ccccc1/C=C1\Cc2ccc3c(c2C1=O)CCCC3 | > 200 | > 200 µM | – |

| Structure (SMILES) | EC50 [µM] | IC50 | outcome |
| --- | --- | --- | --- |
| O=C(O)CNC(=O)OCCCCOC(=O)NCC(=O)O | > 851 | > 851 µM | – |
| NC(=Nc1ccccc1)N/N=C/c1c[nH]c2ccccc12 | > 380 | 0.224 µM | – |
| CCCCNC(=O)OCCN=c1c2ccccc2ccc2ccccc12 | > 200 | > 200 µM | – |
| O=C1C2C3CCC(C3)C2C(=O)C2C3CCC(C3)C12 (stereo not drawn) | > 200 | 186 µM | – |
| Cc1cc(Cl)ccc1NC(=O)C(=O)Cc1occc(=O)c1O | > 295 | > 295 µM | – |
| COc1ccc(N=C2[Se]C(=NC(=O)c3ccccc3)N(c3ccc(OC)cc3)C2=Nc2ccc(OC)cc2)cc1 | > 200 | 102 µM | – |
| CCCCSCCC(N)P(=O)(O)O (stereo not drawn) | > 200 | > 200 µM | – |
| COc1ccc(C(c2c(O)c3ccccc3oc2=O)N2CCCC2)cc1 (stereo not drawn) | > 200 | 123 µM | – |
| COc1cccc2nc3cc(C)c(C)cc3nc12 | > 30.2 | > 30.2 µM | – |
| Oc1ccccc1/C=N/N1C(=S)N(c2ccccc2)C(=Nc2ccccc2)C1=Nc1ccccc1 | > 20 | 1.29 µM | – |
| O=C1OC(CC(=O)c2ccc(Cl)cc2)C(Cl)=C1Cl (stereo not drawn) | > 85.1 | > 85.1 µM | – |
| COC(=O)C(Cc1c[nH]c2ccccc12)NP(=O)(O)OCC1OC(n2cc(Br)c(=O)[nH]c2=O)CC1O (stereo not drawn) | > 200 | > 200 µM | – |
| c1ccc2c(c1)[nH]c1c2c(N2CCOCC2)nn2cnnc12 | > 200 | > 200 µM | – |
| Cc1ccc(C)c(NC(=O)C(=O)C2C(=O)N(c3ccccc3)N=C2N)c1 (stereo not drawn) | > 708 | 631 µM | – |
| CCCCN(CCCC)C(=S)SSC(=S)N(CCCC)CCCC | > 200 | 5.25 µM | – |
| NC(CC(C(=O)O)c1ccccc1)C(=O)O (stereo not drawn) | > 200 | 112 µM | – |
| O=C1/C(=C/c2ccc(O)cc2)CCc2ccccc21 | > 200 | 20.9 µM | – |
| N#Cc1c(-c2ccccc2)cn2c1[nH]c(=O)c1ccccc12 | > 200 | 30.2 µM | – |
| C=CCn1c(-c2ccc([N+](=O)[O-])cc2)cs/c1=N\C(P(=O)(O)O)P(=O)(O)O | > 200 | > 200 µM | – |
